Results published in paper doi:10.1101/2024.07.27.605435v1, “A fluorescent biosensor for the visualization of agmatine” (biorxiv, 2024).

Biological target: T1, PotF (Escherichia coli, UniProt P31133, A182D/S87Y)
T1 sequence (P31133 27-370 S87Y/A182D): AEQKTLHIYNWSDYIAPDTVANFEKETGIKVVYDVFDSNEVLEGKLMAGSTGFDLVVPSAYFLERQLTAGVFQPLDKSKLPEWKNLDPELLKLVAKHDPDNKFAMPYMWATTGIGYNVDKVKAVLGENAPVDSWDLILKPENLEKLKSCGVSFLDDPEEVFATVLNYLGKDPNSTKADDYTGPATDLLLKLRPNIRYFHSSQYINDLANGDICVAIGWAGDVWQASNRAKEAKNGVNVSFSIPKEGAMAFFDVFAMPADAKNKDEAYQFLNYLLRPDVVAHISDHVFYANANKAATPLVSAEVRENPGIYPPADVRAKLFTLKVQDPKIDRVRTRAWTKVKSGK
Test: isothermal titration calorimetry; crystal structure of the complex solved here
Assay type: binding

N=C(N)NCCCCN [agmatine]
Kd: 300 nM
